The numbers were not newly measured in PMC8924334, “Synthesis of [^11C]carbonyl-labeled cyclohexyl (5-(2-acetamidobenzo[d]thiazol-6-yl)-2-methylpyridin-3-yl)carbamate ([^11C-carbonyl]PK68) as a potential PET tracer for receptor-interacting protein 1 kinase” (EJNMMI Radiopharmacy and Chemistry, 2022), which cites them from elsewhere.

Where two headings read alike, the source gives them in different places.

Data set [1] has as its system melanoma (B16F10). Details: method as in Hou et al. 2019. The settings on record: B16F10-bearing mice; ref Hou et al. 2019; cited from earlier work.
The subject of data set [2] is RIPK1. Also on record: method as in Hou et al. 2019. The following applies: mouse cell line; ref Hou et al. 2019; cited from earlier work.
The subject of data set [3] is RIPK1. Also on record: method as in Hou et al. 2019. The settings on record: human cell line; ref Hou et al. 2019; cited from earlier work.
Data set [4] relates to RIPK1. Details: method as in Degterev et al. 2005. The following applies: ref Degterev et al. 2005; cited from earlier work.
The subject of data set [5] is RIPK1. Details: method as in Harris et al. 2017. The following applies: human cells; ref Harris et al. 2017; cited from earlier work.
Data set [6] deals with RIPK1. Details: method as in Harris et al. 2017, 2019. The settings on record: rodents; ref Harris et al. 2017, 2019; cited from earlier work.

Consider `CC(=O)Nc1nc2ccc(-c3cnc(C)c(NC(=O)OC4CCCCC4)c3)cc2s1` [PK68, cyclohexyl (5-(2-acetamidobenzo[d]thiazol-6-yl)-2-methylpyridin-3-yl)carbamate], for which, in data set [1], the “number of tumor metastases” value is “significant reduction in the number of tumor metastases”. In addition, the IC50 was 0.013 µM in data set [2] and 0.023 µM in data set [3].
In the case of `CN1C(=O)C(Cc2c[nH]c3ccccc23)NC1=S` (centres unmarked) [compound 1, Necrostatin-1], the “number of tumor metastases” value in data set [1] is “significant reduction in the number of tumor metastases”. Further, in data set [4], the concentration for a half-maximal effect (EC50) was 0.49 µM.
`CN1C(=O)NC(Cc2c[nH]c3c(Cl)cccc23)C1=O` (centres unmarked) [compound 2, 7-Cl-O-Nec-1]: the EC50 in data set [4] is 0.21 µM.
On to `CN1C(=O)[C@@H](NC(=O)c2n[nH]c(Cc3ccccc3)n2)COc2ccccc21` [compound 3], for which the IC50 in data set [5] was 0.0063 µM; in data set [6], over 1 µM.

Usually IC50 stands for the concentration that inhibits the measured activity by half. A word on the EC50: it is the concentration needed to bring the measured effect to its halfway point.
